Reference: patent US20190388411A1, “NSAID ADMINISTRATION AND RELATED COMPOSITIONS, METHODS AND SYSTEMS” (Alfasigma S.p.A., priority 2013, published 2019)
Marks after values point to notes of the source that are not given here.

Experiments:
[1] = Blood hemoglobin levels in indomethacin-induced enteropathy in rats (Example 16); assay type: in vivo, male Albino Sprague Dawley rats
Protocol: (§1) Twenty four hours after the last dose, the rats were euthanized and samples of blood were collected for the assessment of hemoglobin levels.
Hemoglobin analysis was performed on rat blood samples collected as reported above, by means of Quantichrom Hemoglobin assay kit (Bioassay Systems, Hayward, Calif., USA) and expressed as g/dL.

myeloperoxidase (MPO) [2] = assay: Tissue myeloperoxidase (MPO) levels in jejunum and ileum, ELISA (Example 16); assay type: in vivo, male Albino Sprague Dawley rats; conditions: rats; indomethacin […] BID 14 days, alone or with gastroresistant rifaximin 25 or 50 mg/kg BID or rifaximin polymorph alpha 50 mg/kg BID
Protocol: (§2) The whole intestinal tract was removed and processed for the evaluation of tissue myeloperoxidase (MPO) levels and histological analysis of intestinal damage in jejunum and ileum.
Specimens of intestinal tissues (30 mg) were homogenized on ice with a polytron homogenizer (QIAGEN, Milan, Italy) in 0.6 mL of ice-cold lysis buffer (200 mM NaCl, 5 mM EDTA, 10 mM Tris, 10% glycerine, 1 mM PMSF, 1 μg/ml leupeptin and 28 μg/ml aprotinin (pH 7.4). The homogenate was centrifuged 2 times at 4° C. for 15 min at 1.500 g. The supernatant was diluted 1:5 and used for determination of MPO concentration by means of enzyme-linked immunosorbent assay (ELISA) (Hycult Biotech, Uden, Netherlands). All samples were assayed within 2 day after collection. The results were expressed as nanograms of MPO per milligram of intestinal tissue.

[3] = system: indomethacin - induced microscopic intestinal damage; assay: Histological analysis of intestinal damage in jejunum and ileum (Example 16); assay type: in vivo, male Albino Sprague Dawley rats; conditions: rats; indomethacin […] BID 14 days, alone or with gastroresistant rifaximin 25 and 50 mg/kg BID or rifaximin polymorph alpha 50 mg/kg BID
Protocol: as §2
(§3) Pharmacol. Ther. 1993; 7:29-39. Upon removal, the whole intestinal tract was immediately injected with 10% formalin and left in the same fixative solution. After 30 min, it was opened along the anti-mesenteric border, cleaned of fecal content and fixed in 10% formalin for 24 h. Tissue samples were taken as described below and the full length of small intestine was measured.
In particular the following tissue samples were taken • Ileum: 1 cm of tissue proximal to the ileo-cecal valve was discarded and two specimens of 1.5-2 cm of ileum were taken at this edge as well as 5 cm away from the first ileum sample • Proximal jejunum: two specimens of 1.5-2 cm were taken 5 cm away from both the proximal and distal end of the 37.5% of the small intestine total length. • Distal jejunum: two specimens of 1.5-2 cm were taken 5 cm away from both the proximal and distal end of 81% of small intestine's total length.
After fixation, tissues were embedded into paraffin blocks and were cut into consecutive serial 3-μm sections for staining with hematoxylin and eosin. Histological damage was assessed by two observers, blind to the treatment. Each section was given a score of lesion (Type 1 to 3) (TABLE 23).
Quantitative assessment of histological damage was expressed as percentage of the total length of lesions over the total length of the histological section.

[4] = Mortality in indomethacin- and diclofenac-induced enteropathy in rats (Example 17); conditions: 14 days, indomethacin […] BID, diclofenac 4 mg/kg BID, omeprazole 0.7 mg/kg/day, gastroresistant rifaximin 50 mg/kg BID, as named in the label
Protocol: (§4) A total of one hundred forty two (142) male Albino Sprague Dawley rats, 500 to 600 g body weight (40-week old) were assessed.
(§5) Group 1: ten animals treated with drug vehicle for 14 days (normal controls).
(§6) Group 6: twelve omeprazole-treated animals co-treated with gastroresistant rifaximin (50 mg/kg BID) for 14 days (omeprazole controls)
(§7) The enteropathy induced using diclofenac was carried out in the groups 8 to 11 as follows:
(§8) Group 8: fifteen animals treated with diclofenac 4 mg/kg BID (diclofenac ulcerated control
(§9) Group 9: fifteen animals treated with diclofenac 4 mg/kg BID and omeprazole 0.7 mg/kg once daily (diclofenac and omeprazole ulcerated control)
(§10) Group 10: twelve diclofenac-treated animals co-treated with gastroresistant rifaximin (50 mg/kg BID) for 14 days
(§11) Group 11: twelve diclofenac- and omeprazole-treated animals co-treated with gastroresistant rifaximin (50 mg/kg BID) for 14 days
(§12) Groups 1 to 11 were treated as follows:
(§13) Group 1 received 1% methylcellulose (0.3 ml/rat) and 1% methylcellulose (1 ml/rat) for 14 days.
(§14) Group 6 received gastroresistant rifaximin (50 mg/kg; 12 rats/group) suspended in 1% methylcellulose (1 ml/rat), twice daily, 1 hour before omeprazole 0.7 mg/kg once daily
(§15) Group 8 non-fasted rats were treated for 14 days with diclofenac 4 mg/kg BID by intragastric route, suspended in 1% methylcellulose and administered in a volume of 0.3 ml/rat.
(§16) Group 9 non-fasted rats were treated for 14 days with diclofenac 4 mg/kg BID, plus omeprazole 0.7 mg/kg once daily, by intragastric route, suspended in 1% methylcellulose and administered in a volume of 0.3 ml/rat.
(§17) Group 10 received gastroresistant rifaximin (50 mg/kg; 12 rats/group) suspended in 1% methylcellulose (1 ml/rat), twice daily, 1 hour before diclofenac administration
(§18) Group 11 received gastroresistant rifaximin (50 mg/kg; 12 rats/group) suspended in 1% methylcellulose (1 ml/rat), twice daily, 1 hour before diclofenac administration plus omeprazole 0.7 mg/kg once daily.

[5] = Blood hemoglobin levels in indomethacin- and diclofenac-induced enteropathy in rats (Example 17); assay type: in vivo, male Albino Sprague Dawley rats; conditions: 14 days; for Blood hemoglobin levels (in words): indomethacin […] BID, diclofenac 4 mg/kg BID, omeprazole 0.7 mg/kg/day, gastroresistant rifaximin 50 mg/kg BID, as named in the label; for Hemoglobin (g/dl): indomethacin […] BID or diclofenac 4 mg/kg BID
Protocol: as §4, §5, §6, §7, §8, §9, §10, §11, §12, §13, §14, §15, §16, §17, §18, §1
Haemoglobin analysis was performed on blood samples collected as reported above, using a Quantichrom Hemoglobin assay kit (Bioassay Systems, Hayward, Calif., USA) and expressed as g/dL.

malondialdehyde (MDA) = assay: Tissue malondialdehyde (MDA) levels in jejunum and ileum, colorimetric assay (Example 17); assay type: in vivo, male Albino Sprague Dawley rats; conditions: rats, indomethacin […] BID or diclofenac 4 mg/kg BID, 14 days
Protocol: (§19) (indomethacin plus omeprazole ulcerated controls)
as §12
(§20) The whole intestinal tract was removed and intestinal tissue specimens processed for the evaluation of tissue myeloperoxidase (MPO) levels, an index of tissue neutrophils infiltration, of tissue malondialdehyde (MDA) levels, an index of lipid peroxidation and histological analysis of intestinal damage in jejunum and ileum.
MDA concentration in intestinal tissues was determined to obtain quantitative estimates of membrane lipid peroxidation as described by Fornai et al., NSAID-Induced Enteropathy: Are the Currently Available Selective COX-2 Inhibitors All the Same? J Pharmacol Exp Ther January 2014 348:86-95. For this purpose, intestinal tissue was excised, weighed, minced by forceps, homogenized in 2 ml of cold buffer consisting of Tris-HCl 20 mM, at pH 7.4, using a polytron homogenizer (QIAGEN, Milan, Italy), and centrifuged at 1,500 g for 10 min at 4° C. Aliquots of supernatants were then used for subsequent assay procedures. Mucosal MDA concentrations were estimated using a colorimetric assay kit (Cayman Chemical, Ann Arbor, Mich., U.S.A.). Results were expressed as nanomoles of MDA per milligram of intestinal tissue.

[6] = system: indomethacin- and diclofenac-induced small intestinal damage; assay: Microscopical analysis of small intestinal damage in jejunum and ileum (Example 17); assay type: in vivo, male Albino Sprague Dawley rats; conditions: rats, 14 days; for Ileum lesions type 1, 2 and 3 (in words) / Jejunal lesions type 1, 2 and 3 (in words): indomethacin […] BID, diclofenac 4 mg/kg BID, omeprazole 0.7 mg/kg/day, gastroresistant rifaximin 50 mg/kg BID, as named in the label; for Ileum Type 1 lesion (%) / Ileum Type 2 lesion (%) / Ileum Type 3 lesion (%) / Jejunum Type 1 lesion (%) / Jejunum Type 2 lesion (%) / Jejunum Type 3 lesion (%): indomethacin […] BID or diclofenac 4 mg/kg BID
Protocol: as §5, §6, §7, §8, §9, §10, §11, §12, §13, §14, §15, §16, §17, §18, §20
as §3, with “Upon” for “Pharmacol. Ther. 1993; 7:29-39. Upon”, “in order to rule out any bias:” for “and the full length of small intestine was measured.”
The full length of the small intestine was measured.
Sections of jejunum and ileum were embedded into paraffin blocks and cut into […] serial 7-8 μm sections. The slices were cut at two different points of the block: two on the surface and three at a deeper level. Each slice was placed on the slide for staining with haematoxylin and eosin.
The intestinal damage was classified as reported in Table 27 wherein reference is made with respect to the histological appearance of type 1, 2 and 3 lesions of jejunum and ileum to the illustration of FIG. 1
The statistical significance of data was evaluated by one way analysis of variance (ANOVA) followed by post hoc analysis by Student-Newman-Keuls test, and P values lower than 0.05 were considered significant. All statistical procedures were performed using GraphPad Prism 3.0 software (GraphPad Prism, San Diego, Calif., USA).

myeloperoxidase (MPO) [7] = assay: Tissue myeloperoxidase (MPO) levels in jejunum and ileum, ELISA (Example 17); assay type: in vivo, male Albino Sprague Dawley rats; conditions: rats, indomethacin […] BID or diclofenac 4 mg/kg BID, 14 days
Protocol: as §19, §12, §20
MPO was assessed as described by Fornai et al., NSAID-Induced Enteropathy: Are the Currently Available Selective COX-2 Inhibitors All the Same, J Pharmacol Exp Ther January 2014 348:86-95 and assumed as a quantitative index to estimate the degree of intestinal wall infiltration by polymorphonuclear cells.
Specimens of 30 mg intestinal tissues were homogenized on ice with a polytron homogenizer (QIAGEN, Milan, Italy) in 0.6 mL of ice-cold lysis buffer consisting of 200 mM NaCl, 5 mM EDTA, 10 mM Tris, 10% glycerine, 1 mM phenylmethylsulfonyl fluoride, 1 μg/ml leupeptin and 28 μg/ml aprotinin at pH 7.4. The homogenate was centrifuged 2 times at […] at 1.500 g. The supernatant was diluted 1:5 and used for determination of MPO concentration by means of enzyme-linked immunosorbent assay (ELISA). (Hycult Biotech, Uden, Netherlands). All samples were assayed as described in Example 15. The results were expressed as nanograms of MPO per milligram of intestinal tissue.

Structure (SMILES) | Mortality (dead/treated animals) [4] | Blood hemoglobin levels (in words) [5] | Hemoglobin (g/dl) [5] | Ileum MDA (nmol/mg tissue) (malondialdehyde (MDA)) | Jejunum MDA (nmol/mg tissue) (malondialdehyde (MDA)) | Ileum lesions type 1, 2 and 3 (in words) [6] | Jejunal lesions type 1, 2 and 3 (in words) [6] | Ileum Type 1 lesion (%) [6] | Ileum Type 2 lesion (%) [6] | Ileum Type 3 lesion (%) [6] | Jejunum Type 1 lesion (%) [6] | Jejunum Type 2 lesion (%) [6] | Jejunum Type 3 lesion (%) [6] | further results
COc1ccc2c(c1)c(CC(=O)O)c(C)n2C(=O)c1ccc(Cl)cc1 [Indomethacin, indomethacin] | 2/15 | significant decrease in blood haemoglobin concentration | 11.6* g/dl | 54.47* nmol/mg tissue | 66.15* nmol/mg tissue | occurrence of various degrees of type 1, 2 and 3 lesions in both jejunum and ileum | occurrence of various degrees of type 1, 2 and 3 lesions in both jejunum and ileum | 28.3* % | 11.8* % | 5.2* % | 36* % | 18* % | 4.6* % | Reduction in hemoglobin values ([1]; end of the treatment period (14 days), in respect to the control): about 20%; Blood hemoglobin concentration (in words) ([1]; indomethacin […] BID 14 days, alone or with gastroresistant rifaximin at both doses or rifaximin polymorph alpha 50 mg/kg BID): significant decrease in blood hemoglobin concentration; Ileum tissue MPO levels (in words) (myeloperoxidase (MPO) [2]): significant increase in tissue MPO levels; Jejunum tissue MPO levels (in words) (myeloperoxidase (MPO) [2]): significantly increased; Ileum type 1 lesions, microscopic assessment (in words) [3]: occurrence of type 1 and 2 lesions; Ileum type 2 lesions, microscopic assessment (in words) [3]: occurrence of type 1 and 2 lesions; Ileum type 3 lesions, microscopic assessment (in words) [3]: no significant differences were detected for type 3 lesions; Jejunum type 1 lesions, microscopic assessment (in words) [3]: occurrence of various degrees of type 1, 2 and 3 lesions; Jejunum type 2 lesions, microscopic assessment (in words) [3]: occurrence of various degrees of type 1, 2 and 3 lesions; Jejunum type 3 lesions, microscopic assessment (in words) [3]: occurrence of various degrees of type 1, 2 and 3 lesions; Ileum MDA (nmol/mg tissue) (malondialdehyde (MDA); listed as indomethacin): 54.47 nmol/mg tissue; Jejunum MDA (nmol/mg tissue) (malondialdehyde (MDA); listed as indomethacin): 66.15 nmol/mg tissue
O=C(O)Cc1ccccc1Nc1c(Cl)cccc1Cl [Diclofenac, diclofenac] | 7/15 | significant decrease in blood haemoglobin concentration | 11.3* g/dl | 67.1* nmol/mg tissue | 69.44* nmol/mg tissue | occurrence of various degrees of type 1, 2 and 3 lesions in both jejunum and ileum | occurrence of various degrees of type 1, 2 and 3 lesions in both jejunum and ileum | 26* % | 8.8* % | 3* % | 24.6* % | 4.2* % | 0.8* % | Mortality (%) ([4]; listed as diclofenac): 46.7%; Ileum MPO (ng/mg tissue) (myeloperoxidase (MPO) [7]): 19.35* ng/mg tissue; Jejunum MPO (ng/mg tissue) (myeloperoxidase (MPO) [7]): 20.37* ng/mg tissue; Ileum MPO (ng/mg tissue) (myeloperoxidase (MPO) [7]; listed as diclofenac): 19.35 ng/mg tissue; Jejunum MPO (ng/mg tissue) (myeloperoxidase (MPO) [7]; listed as diclofenac): 20.37 ng/mg tissue; Ileum MDA (nmol/mg tissue) (malondialdehyde (MDA); listed as diclofenac): 67.1 nmol/mg tissue; Jejunum MDA (nmol/mg tissue) (malondialdehyde (MDA); listed as diclofenac): 69.44 nmol/mg tissue
